In ChEMBL document CHEMBL1201862, “PubChem BioAssay data set” (2004):
Activity calls are given as the source filed them.

Experiments:
[1] = inhibitors of HIV Env-driven cell fusion, dose response, cherry-pick (AID 652057); assay type: functional, cell-based
[2] = ZM109 Env clade C HIV-1 fusion inhibitors, dose response, HeLa effector, CEM target cells, luciferase, cherry-pick (AID 652058); assay type: functional, cell-based
[3] = off-target signal loss in HeLa-CEM21 co-culture – HeLa F-luc CTL cells, cherry-picked, counter-screen for HIV-1 Env fusion inhibitor project, dose response (AID 652040); assay type: functional, cell-based;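 note: potency for signal decrease marking cytotoxic or nonspecific inhibition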
[4] = inhibitors of clade B AD8 Env fusion, dose response, cell-based, cherry-pick (AID 652062); assay type: functional;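 note: luciferase signal from cell-cell fusion driven by HIV-1 clade B AD8 Env; potency is for inhibitors of fusion seen as a drop in luminescence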
Coagulation factor XII = target: T1, Coagulation factor XII (Homo sapiens, UniProt P00748); assay type: functional;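 note: activated factor XIIa alpha cleaving a fluorogenic AMC peptide substrate; inhibitor potency from loss of enzyme activity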
T1 sequence (P00748 whole entry): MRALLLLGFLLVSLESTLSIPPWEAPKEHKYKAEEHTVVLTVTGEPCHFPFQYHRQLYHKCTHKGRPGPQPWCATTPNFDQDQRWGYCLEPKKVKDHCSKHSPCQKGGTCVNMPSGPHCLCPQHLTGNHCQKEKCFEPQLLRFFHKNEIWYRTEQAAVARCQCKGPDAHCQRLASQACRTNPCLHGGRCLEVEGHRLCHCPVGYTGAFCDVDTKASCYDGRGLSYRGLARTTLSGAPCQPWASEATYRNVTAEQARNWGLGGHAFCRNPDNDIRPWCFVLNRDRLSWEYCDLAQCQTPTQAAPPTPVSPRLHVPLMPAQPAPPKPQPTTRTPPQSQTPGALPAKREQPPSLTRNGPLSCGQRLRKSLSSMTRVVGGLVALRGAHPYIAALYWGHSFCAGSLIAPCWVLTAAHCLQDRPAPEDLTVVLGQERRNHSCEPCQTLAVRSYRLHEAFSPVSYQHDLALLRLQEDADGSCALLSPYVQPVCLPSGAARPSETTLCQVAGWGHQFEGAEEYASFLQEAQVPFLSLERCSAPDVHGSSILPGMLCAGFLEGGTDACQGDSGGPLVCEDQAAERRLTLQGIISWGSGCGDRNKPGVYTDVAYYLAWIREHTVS

[5] = target: T2, DNA repair protein RAD52 homolog (Homo sapiens, UniProt P43351); assay type: functional, biochemical
T2 sequence (P43351 whole entry): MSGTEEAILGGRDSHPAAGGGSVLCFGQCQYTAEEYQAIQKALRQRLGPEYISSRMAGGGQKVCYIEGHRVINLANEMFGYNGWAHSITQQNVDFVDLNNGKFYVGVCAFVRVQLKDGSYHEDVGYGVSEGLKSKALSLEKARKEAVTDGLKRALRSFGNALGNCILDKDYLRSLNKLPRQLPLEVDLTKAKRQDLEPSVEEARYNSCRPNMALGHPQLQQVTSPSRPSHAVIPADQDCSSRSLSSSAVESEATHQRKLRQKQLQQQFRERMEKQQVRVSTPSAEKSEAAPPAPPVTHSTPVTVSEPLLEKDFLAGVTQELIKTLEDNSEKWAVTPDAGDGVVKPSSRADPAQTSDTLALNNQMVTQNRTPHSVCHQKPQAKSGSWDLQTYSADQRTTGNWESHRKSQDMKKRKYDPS

INS1 = assay: beta cell apoptosis inhibitors, cytokine rescue, dose response, luminescence, retest (AID 449756); assay type: functional, cell-based; settings: Rattus norvegicus;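 note: cell death triggered by IL-1 beta plus TNF-alpha plus IFN-gamma mixture; protective hits raise ATP signal compared with cytokine alone wells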
[6] = Shn3 3'UTR reporter inhibitors, dose response, cell-based, Clone20 osteoblasts, firefly luciferase, cherry-picked (AID 624132); assay type: functional;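 note: firefly luciferase luminescence from reporter carrying the Shn3 3'UTR in osteoblasts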
[7] = HepG2 cell cytotoxicity, dose response, cytotoxicity control for Shn3 inhibitor project, CellTiter-Glo, cherry-picked (AID 624134); assay type: functional, cell-based
[8] = control 3'UTR Renilla luciferase suppression, dose response, counter-screen for Shn3 inhibitor project, cell-based, Clone20-Shn3RL, cherry-picked (AID 624133); assay type: functional
[9] = target: T3, Corticotropin-releasing factor receptor 2/Corticotropin-releasing factor-binding protein (Homo sapiens, UniProt P24387+Q13324); assay: Dose Response confirmation of uHTS hits for small molecule antagonists of the CRF-binding protein and CRF-R2 receptor complex.; assay type: functional; settings: read-out: IC50_Mean
T3 sequence (Q13324 whole entry): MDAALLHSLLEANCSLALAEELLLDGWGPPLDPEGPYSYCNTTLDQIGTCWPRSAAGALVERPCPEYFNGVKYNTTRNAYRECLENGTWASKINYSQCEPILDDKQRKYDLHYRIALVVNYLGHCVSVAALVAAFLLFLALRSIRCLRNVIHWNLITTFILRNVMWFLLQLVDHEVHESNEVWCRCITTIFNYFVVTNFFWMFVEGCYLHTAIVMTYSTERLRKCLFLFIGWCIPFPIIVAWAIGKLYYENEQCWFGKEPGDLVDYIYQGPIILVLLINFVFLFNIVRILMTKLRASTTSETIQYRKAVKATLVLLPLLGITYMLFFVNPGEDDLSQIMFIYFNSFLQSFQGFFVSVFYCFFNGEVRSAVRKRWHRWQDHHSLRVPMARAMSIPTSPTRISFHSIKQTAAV
T3 sequence (P24387 whole entry): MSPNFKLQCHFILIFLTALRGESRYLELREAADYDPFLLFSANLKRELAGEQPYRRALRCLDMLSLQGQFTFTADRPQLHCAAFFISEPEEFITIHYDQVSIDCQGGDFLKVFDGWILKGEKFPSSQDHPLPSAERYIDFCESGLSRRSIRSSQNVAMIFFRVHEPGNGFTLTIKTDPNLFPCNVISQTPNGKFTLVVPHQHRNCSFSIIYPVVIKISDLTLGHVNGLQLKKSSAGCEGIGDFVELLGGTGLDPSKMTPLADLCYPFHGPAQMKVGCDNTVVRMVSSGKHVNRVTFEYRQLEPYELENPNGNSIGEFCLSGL

[10] = target: T3, Corticotropin-releasing factor receptor 2/Corticotropin-releasing factor-binding protein; assay: activators of CRF receptor 2 with binding protein – uHTS hits, confirmation (AID 602473); assay type: functional; settings: read-out: EC50_Mean
[11] = CRF-BP/CRF-R2 complex antagonists, dose response, cell-based, uHTS hits, 384-well (AID 651639); assay type: functional, Homo sapiens; settings: read-out: IC50_Mean
[12] = target: T4, RNA-binding protein pos-1 (Caenorhabditis elegans, UniProt G5EF15); assay: inhibitors of POS-1/mex-3 RNA binding, dose response, biochemical, fluorescence polarization (AID 1964);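 note: purified POS-1 fused to maltose binding protein made in E. coli; potency of compounds blocking POS-1 binding to fluorescent RNA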
T4 sequence (G5EF15 whole entry): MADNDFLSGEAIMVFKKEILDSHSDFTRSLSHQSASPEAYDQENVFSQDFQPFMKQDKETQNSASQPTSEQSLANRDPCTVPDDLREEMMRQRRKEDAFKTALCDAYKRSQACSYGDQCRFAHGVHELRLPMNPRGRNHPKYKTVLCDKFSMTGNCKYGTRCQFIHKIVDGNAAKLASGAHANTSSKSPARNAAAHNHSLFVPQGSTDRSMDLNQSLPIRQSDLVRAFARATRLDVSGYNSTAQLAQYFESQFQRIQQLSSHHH

[13] = target: T5, Zinc finger protein mex-5 (Caenorhabditis elegans, UniProt Q9XUB2); assay: MEX-5/TCR-2 RNA interaction inhibitors, dose response, biochemical, C. elegans, fluorescence polarization (AID 1960)
T5 sequence (Q9XUB2 whole entry): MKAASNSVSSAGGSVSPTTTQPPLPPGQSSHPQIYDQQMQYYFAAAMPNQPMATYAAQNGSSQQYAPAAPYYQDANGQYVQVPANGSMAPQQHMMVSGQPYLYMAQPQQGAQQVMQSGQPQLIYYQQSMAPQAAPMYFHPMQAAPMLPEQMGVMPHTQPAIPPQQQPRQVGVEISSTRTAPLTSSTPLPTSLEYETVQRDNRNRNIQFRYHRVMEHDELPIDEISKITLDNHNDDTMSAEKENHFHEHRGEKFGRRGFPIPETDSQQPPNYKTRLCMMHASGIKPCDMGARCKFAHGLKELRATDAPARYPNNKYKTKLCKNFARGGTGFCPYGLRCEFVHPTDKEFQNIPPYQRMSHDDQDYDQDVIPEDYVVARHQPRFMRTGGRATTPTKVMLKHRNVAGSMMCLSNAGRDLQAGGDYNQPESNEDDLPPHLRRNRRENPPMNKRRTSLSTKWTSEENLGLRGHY

Prothrombin = Prothrombin (Homo sapiens, UniProt P00734); assay: Thrombin 1536 HTS Dose Response Confirmation. [Related pubchem assays: 1046 (Thrombin 1536 HTS; hits were confirmed in this assay)]; assay type: functional
[14] = target: T6, High affinity choline transporter 1 (Homo sapiens, UniProt Q9GZV3); assay: CHT inhibitors, dose response, cell-based, 5-point CRC, membrane potential dye (AID 504840); assay type: functional
T6 sequence (Q9GZV3 whole entry): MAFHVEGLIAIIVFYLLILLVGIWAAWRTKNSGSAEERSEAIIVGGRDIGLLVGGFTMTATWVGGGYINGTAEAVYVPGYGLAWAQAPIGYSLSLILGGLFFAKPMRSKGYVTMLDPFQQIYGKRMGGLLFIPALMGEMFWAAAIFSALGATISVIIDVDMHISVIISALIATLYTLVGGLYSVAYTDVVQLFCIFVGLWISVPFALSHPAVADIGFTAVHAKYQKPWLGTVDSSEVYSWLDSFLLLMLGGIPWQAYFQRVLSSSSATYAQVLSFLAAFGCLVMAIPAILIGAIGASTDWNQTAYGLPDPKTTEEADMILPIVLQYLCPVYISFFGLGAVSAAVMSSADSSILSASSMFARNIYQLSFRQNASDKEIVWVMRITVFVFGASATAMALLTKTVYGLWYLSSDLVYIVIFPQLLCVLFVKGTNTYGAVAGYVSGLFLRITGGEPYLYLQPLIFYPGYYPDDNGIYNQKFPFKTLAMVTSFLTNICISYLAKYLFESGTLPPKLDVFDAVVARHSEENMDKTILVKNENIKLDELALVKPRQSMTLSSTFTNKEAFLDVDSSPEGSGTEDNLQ

Cytochrome P450 2D6 = Cytochrome P450 2D6 (Homo sapiens, UniProt P10635);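 note: CYP2D6 member of a cytochrome P450 panel assay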
Cytochrome P450 2D6, sequence (P10635 whole entry): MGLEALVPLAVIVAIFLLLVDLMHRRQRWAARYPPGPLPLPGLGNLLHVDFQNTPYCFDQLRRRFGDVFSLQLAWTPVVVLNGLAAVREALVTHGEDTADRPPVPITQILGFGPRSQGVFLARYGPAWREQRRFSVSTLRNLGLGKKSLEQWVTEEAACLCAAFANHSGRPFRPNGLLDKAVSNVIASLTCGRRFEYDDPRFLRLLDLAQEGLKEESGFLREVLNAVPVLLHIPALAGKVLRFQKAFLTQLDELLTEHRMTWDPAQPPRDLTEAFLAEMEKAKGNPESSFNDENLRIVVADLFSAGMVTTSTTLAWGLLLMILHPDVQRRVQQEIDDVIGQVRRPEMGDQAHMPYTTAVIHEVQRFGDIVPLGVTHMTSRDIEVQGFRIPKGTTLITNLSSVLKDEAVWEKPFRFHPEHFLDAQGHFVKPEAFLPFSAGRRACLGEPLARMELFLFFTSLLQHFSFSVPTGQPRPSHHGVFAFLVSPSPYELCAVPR

[15] = inhibitors of intracellular T. cruzi replication, confirmation, NIH3T3 host cells, beta-gal luminescence (AID 2044); assay type: functional, cell-based;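 note: intracellular parasites grown in NIH/3T3 mouse fibroblasts as host cells; luminescent beta-galactosidase reporter signal from transgenic T. cruzi replicating inside host cells; inhibitors lower the luminescence signal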
[16] = cytotoxicity toward NIH3T3 fibroblasts, dose response, counter-screen, cell-based, ATP luminescence, mouse fibroblasts (AID 2010); assay type: functional;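 note: cells exposed to compound for about 90 hours before reading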

## CN(CC(=O)NCCc1ccc(S(N)(=O)=O)cc1)CC(=O)Nc1ccc(Cl)c(C(F)(F)F)c1
[1]
  AC50: 5.63 µM (active)
[2]
  AC50: 2.95 µM (active)
[3]
  AC50: 7.96 µM (active)
[4]
  AC50: 11.9 µM (active)

## Cc1n[nH]c(C)c1CCC(=O)N/N=C/c1cccs1
Coagulation factor XII
  IC50: > 50 µM (inactive)

## COc1ccc(OC(=O)N(C)C[C@@H]2OCc3ccccc3-c3c(n(C)c4ccccc34)C(=O)N([C@H](C)CO)C[C@@H]2C)cc1
[1]
  AC50: 1.62 µM (active)
[2]
  AC50: 1.44 µM (active)
[3]
  AC50: 2.43 µM (active)
[4]
  AC50: 3.25 µM (active)

## Cc1ccc2nc(NC(=N)N)nc(C)c2c1
[5]
  AC50: 12.6 µM (active)

## COc1ccc(S(=O)(=O)Nc2ccc3c(c2)CC(=O)N([C@@H](C)CO)C[C@H](C)[C@H](CN(C)S(=O)(=O)c2ccccc2)O3)cc1
[1]
  AC50: 2.12 µM (active)
[2]
  AC50: 1.82 µM (active)
[4]
  AC50: 11.6 µM (active)

## O=C(Nc1ccc(F)cc1)Nc1cc(OCC(F)(F)F)cc(OCC(F)(F)F)c1
Coagulation factor XII
  IC50: > 50 µM (inactive)
INS1
  AC50: 2.01 µM (active)
[6]
  AC50: 2.46 µM (active)
[7]
  AC50: 4.1 µM (active)
[8]
  AC50: 4.59 µM (active)

## COCCNc1nc2c(S(=O)(=O)c3cc(C)ccc3C)nnn2c2ccccc12
[9]
  IC50: 39 µM (active)
[10]
  EC50: > 53 µM (inactive)
[11]
  IC50: 10.6 µM (active)

## Nn1c(Cc2cccc3ccccc23)nnc1SCCOc1ccc(F)cc1
Coagulation factor XII
  IC50: > 50 µM (inactive)

## COc1cc2ccccc2cc1C(=O)NC(=S)Nc1cc(C(=O)O)ccc1C
[12]
  EC50: > 300 µM (not active)
[13]
  EC50: > 300 µM (not active)
Coagulation factor XII
  IC50: > 50 µM (inactive)

## CC1=C(c2ccccc2)C(O)(c2ccccc2)C(C)C1=O (stereo not given)
[9]
  IC50: 13.9 µM (active)
[10]
  EC50: > 53 µM (inactive)
[11]
  IC50: 8.13 µM (active)

## C=CCNC(=O)CN(c1ccc(F)cc1)S(=O)(=O)c1ccc(OC)cc1
Coagulation factor XII
  IC50: > 50 µM (inactive)

## N=C(N)Nc1ccc(/C=C2\C=Cc3ccccc32)cc1
[5]
  AC50: 13.2 µM (active)

## CCOC(=O)c1ccccc1Oc1c(F)c(F)nc(NCCO)c1F
Prothrombin
  IC50: > 50 µM (not active)
[14]
  IC50: 14.5 µM (active)
Cytochrome P450 2D6
  AC50: 20 µM (inconclusive)

## O=C(Nc1nc2ccc(S(=O)(=O)N3CCCC3)cc2s1)c1ccccn1
[15]
  EC50: 2.15 µM (active)
[16]
  EC50: 5.13 µM (active)
[9]
  IC50: 28.6 µM (active)
[10]
  EC50: > 53 µM (inactive)
[11]
  IC50: > 20 µM (inactive)

## COc1ccc(/C=C/C(=O)NCc2cn(C)nc2C)cc1COc1ccc(Cl)cc1Br
[9]
  IC50: 6.89 µM (active)
[10]
  EC50: > 53 µM (inactive)
[11]
  IC50: > 20 µM (inactive)

## CSc1ccc(S(=O)(=O)N2CCC(C(=O)N3CCc4ccccc4C3)CC2)cc1
[14]
  IC50: 17.4 µM (active)

## COc1ccc2c(c1)OC(O)(C(F)(F)C(F)F)CC2=O (stereo not given)
[14]
  IC50: 13.2 µM (active)
[10]
  EC50: 15.6 µM (active)

## Cc1cc(NC(=O)COC(=O)c2cccc(S(=O)(=O)N(C)C3CCCCC3)c2)no1
Coagulation factor XII
  IC50: > 50 µM (inactive)
